According to ChEMBL document CHEMBL1145498, “A systematic interaction map of validated kinase inhibitors with Ser/Thr kinases” (Proc Natl Acad Sci U S A, 2007):

How the values were obtained:
[1] = target: 5'-AMP-activated protein kinase catalytic subunit alpha-2 (Homo sapiens) (UniProt P54646)
[2] = target: Calcium/calmodulin-dependent protein kinase type II subunit alpha (Homo sapiens) (UniProt Q9UQM7)
[3] = target: Calcium/calmodulin-dependent protein kinase type II subunit beta (Homo sapiens) (UniProt Q13554)
[4] = target: Calcium/calmodulin-dependent protein kinase type II subunit delta (Homo sapiens) (UniProt Q13557)
Chain of Calcium/calmodulin-dependent protein kinase type II subunit delta (Homo sapiens) (Q13557 whole entry): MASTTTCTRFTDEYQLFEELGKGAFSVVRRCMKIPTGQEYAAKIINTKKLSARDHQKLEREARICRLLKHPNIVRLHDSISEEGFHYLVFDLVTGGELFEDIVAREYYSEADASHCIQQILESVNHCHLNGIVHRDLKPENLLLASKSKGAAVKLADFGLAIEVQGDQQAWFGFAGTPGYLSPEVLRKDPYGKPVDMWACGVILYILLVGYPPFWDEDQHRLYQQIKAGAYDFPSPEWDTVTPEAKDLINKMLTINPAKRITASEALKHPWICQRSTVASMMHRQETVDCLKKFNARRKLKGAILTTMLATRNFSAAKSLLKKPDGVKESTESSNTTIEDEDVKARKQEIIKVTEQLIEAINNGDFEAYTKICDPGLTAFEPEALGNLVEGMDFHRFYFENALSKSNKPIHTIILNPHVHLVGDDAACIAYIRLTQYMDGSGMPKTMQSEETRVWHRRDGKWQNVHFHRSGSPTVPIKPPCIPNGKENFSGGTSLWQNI

[5] = target: Calcium/calmodulin-dependent protein kinase type II subunit gamma (Homo sapiens) (UniProt Q13555)
[6] = target: Cyclin-dependent kinase 2 (Homo sapiens, UniProt P24941)
[7] = target: Cyclin-dependent kinase 6 (Homo sapiens) (UniProt Q00534)
[8] = target: Cyclin-dependent kinase-like 1 (Homo sapiens) (UniProt Q00532)
Chain of Cyclin-dependent kinase-like 1 (Homo sapiens) (Q00532 whole entry): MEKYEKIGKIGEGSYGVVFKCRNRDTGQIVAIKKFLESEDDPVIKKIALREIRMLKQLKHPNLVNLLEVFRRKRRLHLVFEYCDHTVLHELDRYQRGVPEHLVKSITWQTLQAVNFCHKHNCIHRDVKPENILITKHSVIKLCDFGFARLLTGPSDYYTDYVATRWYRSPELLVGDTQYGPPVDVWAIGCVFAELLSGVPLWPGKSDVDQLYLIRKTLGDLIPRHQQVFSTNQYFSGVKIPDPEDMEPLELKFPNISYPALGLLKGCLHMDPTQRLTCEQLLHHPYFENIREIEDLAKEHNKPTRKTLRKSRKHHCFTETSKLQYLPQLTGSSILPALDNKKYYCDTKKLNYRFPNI

[9] = target: Serine/threonine-protein kinase Chk2 (Homo sapiens, UniProt O96017)
[10] = target: Dual specificity protein kinase CLK1 (Homo sapiens) (UniProt P49759)
[11] = target: Casein kinase I isoform gamma-2 (Homo sapiens) (UniProt P78368)
Chain of Casein kinase I isoform gamma-2 (Homo sapiens) (P78368 whole entry, looked up, canonical isoform): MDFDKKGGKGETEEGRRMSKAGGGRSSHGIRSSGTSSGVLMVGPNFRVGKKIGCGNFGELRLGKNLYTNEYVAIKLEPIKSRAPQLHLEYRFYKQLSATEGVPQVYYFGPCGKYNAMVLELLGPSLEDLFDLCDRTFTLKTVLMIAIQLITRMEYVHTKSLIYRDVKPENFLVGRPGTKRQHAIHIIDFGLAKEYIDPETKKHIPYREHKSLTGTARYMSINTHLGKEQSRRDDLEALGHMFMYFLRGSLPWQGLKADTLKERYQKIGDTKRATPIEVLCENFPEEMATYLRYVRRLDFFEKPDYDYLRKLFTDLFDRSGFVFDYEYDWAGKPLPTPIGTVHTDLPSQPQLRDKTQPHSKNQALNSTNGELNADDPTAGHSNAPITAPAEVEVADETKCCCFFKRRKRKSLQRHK

[12] = target: Casein kinase I isoform gamma-3 (Homo sapiens) (UniProt Q9Y6M4)
Chain of Casein kinase I isoform gamma-3 (Homo sapiens) (Q9Y6M4 whole entry, looked up, canonical isoform): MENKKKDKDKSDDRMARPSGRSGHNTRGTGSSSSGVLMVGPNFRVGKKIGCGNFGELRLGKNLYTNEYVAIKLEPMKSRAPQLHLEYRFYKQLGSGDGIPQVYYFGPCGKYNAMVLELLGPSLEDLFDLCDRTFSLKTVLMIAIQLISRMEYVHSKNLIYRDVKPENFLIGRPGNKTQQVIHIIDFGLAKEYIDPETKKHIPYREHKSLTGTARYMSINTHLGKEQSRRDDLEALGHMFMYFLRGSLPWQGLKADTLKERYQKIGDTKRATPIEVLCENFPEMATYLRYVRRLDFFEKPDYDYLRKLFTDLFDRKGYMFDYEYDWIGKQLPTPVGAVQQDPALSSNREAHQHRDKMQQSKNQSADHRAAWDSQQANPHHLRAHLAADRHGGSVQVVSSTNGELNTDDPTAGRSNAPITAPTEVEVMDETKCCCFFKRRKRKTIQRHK

[13] = target: Death-associated protein kinase 3 (Homo sapiens) (UniProt O43293)
[14] = target: Tyrosine-protein kinase JAK1 (Homo sapiens) (UniProt P23458)
Chain of Tyrosine-protein kinase JAK1 (Homo sapiens) (P23458 whole entry): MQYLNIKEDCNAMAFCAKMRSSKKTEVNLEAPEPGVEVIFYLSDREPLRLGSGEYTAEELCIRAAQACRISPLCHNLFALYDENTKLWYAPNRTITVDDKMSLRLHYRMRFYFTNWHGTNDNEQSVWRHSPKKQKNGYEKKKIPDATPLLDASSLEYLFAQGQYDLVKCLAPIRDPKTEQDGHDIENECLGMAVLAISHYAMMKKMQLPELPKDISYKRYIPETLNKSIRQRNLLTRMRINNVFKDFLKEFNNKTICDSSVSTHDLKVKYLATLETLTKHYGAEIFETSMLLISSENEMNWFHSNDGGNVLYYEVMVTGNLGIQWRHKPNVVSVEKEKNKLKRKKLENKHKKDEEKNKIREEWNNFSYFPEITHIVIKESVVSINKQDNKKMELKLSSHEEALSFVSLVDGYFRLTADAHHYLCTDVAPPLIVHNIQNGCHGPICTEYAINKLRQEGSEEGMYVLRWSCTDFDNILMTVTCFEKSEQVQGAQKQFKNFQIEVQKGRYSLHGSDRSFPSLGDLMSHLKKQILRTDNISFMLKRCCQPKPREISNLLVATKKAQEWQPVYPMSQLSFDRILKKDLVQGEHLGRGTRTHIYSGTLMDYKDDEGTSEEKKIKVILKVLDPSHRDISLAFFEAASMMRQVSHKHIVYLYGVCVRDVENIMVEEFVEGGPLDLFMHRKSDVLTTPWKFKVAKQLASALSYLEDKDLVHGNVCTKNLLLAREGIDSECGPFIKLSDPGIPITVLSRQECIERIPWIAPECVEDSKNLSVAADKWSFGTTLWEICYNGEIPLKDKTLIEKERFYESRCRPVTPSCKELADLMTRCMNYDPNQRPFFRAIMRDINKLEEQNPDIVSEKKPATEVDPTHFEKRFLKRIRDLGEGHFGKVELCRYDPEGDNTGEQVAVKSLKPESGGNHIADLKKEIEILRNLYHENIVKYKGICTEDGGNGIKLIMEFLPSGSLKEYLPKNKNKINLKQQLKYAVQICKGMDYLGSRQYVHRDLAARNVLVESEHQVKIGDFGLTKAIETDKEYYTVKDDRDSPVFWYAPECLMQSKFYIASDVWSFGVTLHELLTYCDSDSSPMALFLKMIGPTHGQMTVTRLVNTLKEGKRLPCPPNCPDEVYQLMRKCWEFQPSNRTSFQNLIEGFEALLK

[15] = target: Dual specificity mitogen-activated protein kinase kinase 2 (Homo sapiens, UniProt P36507)
[16] = target: T1, Dual specificity mitogen-activated protein kinase kinase 6 (Homo sapiens) (UniProt P52564)
T1 sequence (whole entry): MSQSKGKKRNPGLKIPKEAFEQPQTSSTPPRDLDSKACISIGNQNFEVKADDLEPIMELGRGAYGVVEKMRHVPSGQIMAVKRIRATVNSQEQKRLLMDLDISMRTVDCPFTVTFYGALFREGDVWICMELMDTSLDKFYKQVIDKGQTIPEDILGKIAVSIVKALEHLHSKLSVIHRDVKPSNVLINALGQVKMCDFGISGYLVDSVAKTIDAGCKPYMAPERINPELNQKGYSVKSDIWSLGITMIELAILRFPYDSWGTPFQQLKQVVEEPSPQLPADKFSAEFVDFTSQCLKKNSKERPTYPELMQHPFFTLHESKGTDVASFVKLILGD

[17] = target: Mitogen-activated protein kinase 3 (Homo sapiens, UniProt P27361)
[18] = target: Serine/threonine-protein kinase 26 (Homo sapiens) (UniProt Q9P289)
[19] = target: Serine/threonine-protein kinase OSR1 (Homo sapiens) (UniProt O95747)
Chain of Serine/threonine-protein kinase OSR1 (Homo sapiens) (O95747 2-527 limits assumed): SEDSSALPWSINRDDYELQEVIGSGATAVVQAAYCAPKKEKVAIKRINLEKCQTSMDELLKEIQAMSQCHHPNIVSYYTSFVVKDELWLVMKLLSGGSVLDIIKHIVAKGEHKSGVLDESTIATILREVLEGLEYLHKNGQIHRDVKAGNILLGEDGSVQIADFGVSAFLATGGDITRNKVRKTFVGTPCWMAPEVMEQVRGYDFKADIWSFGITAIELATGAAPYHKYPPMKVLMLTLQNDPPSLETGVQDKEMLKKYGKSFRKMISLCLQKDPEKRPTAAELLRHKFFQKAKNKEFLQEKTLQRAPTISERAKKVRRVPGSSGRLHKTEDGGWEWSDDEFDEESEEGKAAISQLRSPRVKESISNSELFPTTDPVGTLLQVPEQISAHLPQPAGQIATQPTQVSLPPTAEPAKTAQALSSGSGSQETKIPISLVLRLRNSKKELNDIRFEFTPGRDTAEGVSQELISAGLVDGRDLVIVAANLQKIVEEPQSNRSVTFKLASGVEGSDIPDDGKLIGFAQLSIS

[20] = target: Serine/threonine-protein kinase PAK 5 (Homo sapiens) (UniProt Q9P286)
[21] = target: Cyclin-dependent kinase 16 (Homo sapiens) (UniProt Q00536)
[22] = target: Serine/threonine-protein kinase pim-3 (Homo sapiens) (UniProt Q86V86)
[23] = target: Serine/threonine-protein kinase PLK1 (Homo sapiens) (UniProt P53350)
[24] = target: Serine/threonine-protein kinase RIO2 (Homo sapiens) (UniProt Q9BVS4)
[25] = target: Ribosomal protein S6 kinase alpha-3 (Homo sapiens) (UniProt P51812)
Chain of Ribosomal protein S6 kinase alpha-3 (Homo sapiens) (P51812 whole entry): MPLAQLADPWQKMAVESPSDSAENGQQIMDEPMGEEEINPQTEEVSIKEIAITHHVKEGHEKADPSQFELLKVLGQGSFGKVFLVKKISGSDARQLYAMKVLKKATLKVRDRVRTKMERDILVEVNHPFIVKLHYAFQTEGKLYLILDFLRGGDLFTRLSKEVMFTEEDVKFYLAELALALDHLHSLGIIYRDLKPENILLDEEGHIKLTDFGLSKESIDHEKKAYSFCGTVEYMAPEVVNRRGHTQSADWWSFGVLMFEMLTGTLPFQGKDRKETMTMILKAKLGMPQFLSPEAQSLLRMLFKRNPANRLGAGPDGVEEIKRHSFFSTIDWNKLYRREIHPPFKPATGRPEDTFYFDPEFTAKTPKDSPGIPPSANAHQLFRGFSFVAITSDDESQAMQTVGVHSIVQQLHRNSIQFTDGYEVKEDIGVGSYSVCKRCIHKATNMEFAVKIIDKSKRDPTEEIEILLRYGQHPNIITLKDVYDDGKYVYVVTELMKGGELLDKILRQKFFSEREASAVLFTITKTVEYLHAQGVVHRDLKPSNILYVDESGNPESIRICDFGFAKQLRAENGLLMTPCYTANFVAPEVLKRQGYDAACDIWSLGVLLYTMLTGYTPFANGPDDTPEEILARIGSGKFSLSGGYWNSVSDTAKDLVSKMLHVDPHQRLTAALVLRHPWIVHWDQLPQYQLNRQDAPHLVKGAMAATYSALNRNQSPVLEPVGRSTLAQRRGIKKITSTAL

[26] = target: STE20-like serine/threonine-protein kinase (Homo sapiens) (UniProt Q9H2G2)
[27] = target: Serine/threonine-protein kinase 38 (Homo sapiens) (UniProt Q15208)
[28] = target: T2, Serine/threonine-protein kinase VRK1 (Homo sapiens) (UniProt Q99986)
T2 sequence (whole entry): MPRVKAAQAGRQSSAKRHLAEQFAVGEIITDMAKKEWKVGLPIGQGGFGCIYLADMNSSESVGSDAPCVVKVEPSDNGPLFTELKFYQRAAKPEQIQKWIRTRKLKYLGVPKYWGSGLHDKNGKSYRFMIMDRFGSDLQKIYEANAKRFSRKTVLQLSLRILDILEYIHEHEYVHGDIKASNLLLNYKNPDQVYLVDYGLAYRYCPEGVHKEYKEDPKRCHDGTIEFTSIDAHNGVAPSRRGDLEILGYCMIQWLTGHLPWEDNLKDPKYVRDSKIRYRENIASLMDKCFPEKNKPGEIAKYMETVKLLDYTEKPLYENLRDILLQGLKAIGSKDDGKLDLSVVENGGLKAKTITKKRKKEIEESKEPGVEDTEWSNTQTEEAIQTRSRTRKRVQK

[29] = target: T3, Serine/threonine-protein kinase VRK3 (Homo sapiens) (UniProt Q8IV63)
T3 sequence (whole entry): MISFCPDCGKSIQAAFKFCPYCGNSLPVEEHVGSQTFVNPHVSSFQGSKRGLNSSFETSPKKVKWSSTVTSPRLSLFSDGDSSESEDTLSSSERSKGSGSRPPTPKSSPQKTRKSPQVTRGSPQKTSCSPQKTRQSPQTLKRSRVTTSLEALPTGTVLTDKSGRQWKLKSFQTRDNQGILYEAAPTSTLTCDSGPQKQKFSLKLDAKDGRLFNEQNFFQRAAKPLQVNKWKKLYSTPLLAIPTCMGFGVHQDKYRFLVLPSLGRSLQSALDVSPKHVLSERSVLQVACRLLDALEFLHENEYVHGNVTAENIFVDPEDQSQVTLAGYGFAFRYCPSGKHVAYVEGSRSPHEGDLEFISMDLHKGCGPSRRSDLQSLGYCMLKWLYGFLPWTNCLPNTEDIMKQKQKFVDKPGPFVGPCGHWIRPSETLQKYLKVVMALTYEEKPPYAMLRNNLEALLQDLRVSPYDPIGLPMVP

Chain of Calcium/calmodulin-dependent protein kinase type II subunit alpha (Homo sapiens) (Q9UQM7 whole entry): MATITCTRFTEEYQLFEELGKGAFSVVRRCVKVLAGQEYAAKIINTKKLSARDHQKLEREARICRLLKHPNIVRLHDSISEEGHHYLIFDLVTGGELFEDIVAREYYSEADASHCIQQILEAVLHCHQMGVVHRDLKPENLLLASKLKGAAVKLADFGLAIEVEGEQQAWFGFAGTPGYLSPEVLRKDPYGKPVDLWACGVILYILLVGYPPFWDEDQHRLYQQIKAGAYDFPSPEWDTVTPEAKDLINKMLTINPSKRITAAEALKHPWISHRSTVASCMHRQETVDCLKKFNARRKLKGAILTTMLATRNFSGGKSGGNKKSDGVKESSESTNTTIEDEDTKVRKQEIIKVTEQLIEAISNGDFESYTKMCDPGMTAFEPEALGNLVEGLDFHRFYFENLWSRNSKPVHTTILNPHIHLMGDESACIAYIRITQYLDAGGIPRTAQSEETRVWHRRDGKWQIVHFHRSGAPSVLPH

Compound | ΔTm [1] | ΔTm [2] | ΔTm [3] | ΔTm [4] | ΔTm [5] | ΔTm [6] | ΔTm [7] | ΔTm [8] | ΔTm [9] | ΔTm [10] | ΔTm [11] | ΔTm [12] | ΔTm [13] | ΔTm [14] | ΔTm [15] | ΔTm [16] | ΔTm [17] | ΔTm [18] | ΔTm [19] | ΔTm [20] | other results
CC(C)n1cnc2/c(=N/c3cccc(Cl)c3)nc(NCCO)[nH]c21 | 0.3 °C | 0.7 °C | 0.4 °C | -0.4 °C | 1.1 °C | 1.6 °C | 0 °C | -0.1 °C | 1.7 °C | 5.1 °C | 4.5 °C | 7 °C | 2.2 °C | 3.7 °C | 0.2 °C | 0.3 °C | 0.2 °C | 2.1 °C | 1.3 °C | 1.6 °C | ΔTm [21]: 0.1 °C; ΔTm [22]: 2.3 °C; ΔTm [23]: 7.5 °C; ΔTm [24]: 1 °C; ΔTm [25]: 2.1 °C; ΔTm [26]: 1.6 °C; ΔTm [27]: 2.7 °C; ΔTm [28]: 0.5 °C; ΔTm [29]: 0.4 °C
NC1=N/C(=C2/CCNC(=O)c3[nH]ccc32)C(=O)N1 [DEBROMOHYMENIALDISINE] | -0.5 °C | 0.1 °C | 0.7 °C | 0.1 °C | 0.3 °C | 0.7 °C | 0.6 °C | 0.3 °C | 1.7 °C | 6 °C | 3.5 °C | 2.4 °C | 5.2 °C | -0.2 °C | 0.4 °C | 0.3 °C | 0.6 °C | 1.3 °C | 0.4 °C | 0.2 °C | ΔTm [21]: 0 °C; ΔTm [22]: 2.4 °C; ΔTm [23]: 2.4 °C; ΔTm [24]: -0.3 °C; ΔTm [25]: 6.4 °C; ΔTm [26]: 0.6 °C; ΔTm [27]: 0.7 °C; ΔTm [28]: 1.3 °C; ΔTm [29]: 0.5 °C
C[C@@H]1C[C@H]2O[C@@H]2/C=C\C=C\C(=O)Cc2c(Cl)c(O)cc(O)c2C(=O)O1 [RADICICOL] | -0.3 °C | 0 °C | 0.1 °C | -0.4 °C | 0 °C | 0.5 °C | -0.5 °C | -0.2 °C | 1.6 °C | 0 °C | 0 °C | 0.1 °C | -0.3 °C | -0.2 °C | 0 °C | 0 °C | 0 °C | -0.2 °C | 1.4 °C | 0.6 °C | ΔTm [21]: 0.2 °C; ΔTm [22]: 0.5 °C; ΔTm [23]: 0.2 °C; ΔTm [24]: -0.5 °C; ΔTm [25]: 0.9 °C; ΔTm [26]: 0.4 °C; ΔTm [27]: 0.3 °C; ΔTm [28]: -0.2 °C; ΔTm [29]: -0.4 °C
Cc1cc(Nc2nc(-c3ccccc3)nc3ccccc23)n[nH]1 | 5.8 °C | 1.4 °C | 0.6 °C | 0.7 °C | 1.9 °C | 3 °C | 1.9 °C | 1.5 °C | 5.7 °C | 5.8 °C | 3.3 °C | 2.8 °C | 6.5 °C | 12.2 °C | 3.2 °C | 2.3 °C | 0.1 °C | 3.3 °C | 2.9 °C | 5.2 °C | ΔTm [21]: 1.4 °C; ΔTm [22]: 5.2 °C; ΔTm [23]: 10.8 °C; ΔTm [24]: 5.3 °C; ΔTm [25]: 6.4 °C; ΔTm [26]: 7.1 °C; ΔTm [27]: 4 °C; ΔTm [28]: 0.8 °C; ΔTm [29]: 6.6 °C
N=C(N)NCCNS(=O)(=O)c1cccc2cnccc12 | 0.5 °C | 0.3 °C | 0.4 °C | 0.1 °C | 0 °C | 0.3 °C | 0 °C | 0 °C | 0.2 °C | 0.7 °C | 0.4 °C | 0.3 °C | 2 °C | -0.3 °C | -0.6 °C | -0.1 °C | 0.1 °C | -0.3 °C | 1.1 °C | 0.4 °C | ΔTm [21]: -0.7 °C; ΔTm [22]: 0.8 °C; ΔTm [23]: 0.3 °C; ΔTm [24]: 1.5 °C; ΔTm [25]: 0.6 °C; ΔTm [26]: 0.3 °C; ΔTm [27]: 0.1 °C; ΔTm [28]: 0.3 °C; ΔTm [29]: 0.3 °C
COc1cc(OC)c(/C=C2\C(=O)Nc3ccccc32)c(OC)c1 | -0.1 °C | -0.1 °C | 0.1 °C | -0.3 °C | 0 °C | 0.5 °C | 0.3 °C | -0.5 °C | -0.7 °C | 0.1 °C | 0.7 °C | 0.5 °C | -0.3 °C | 0.5 °C | -0.4 °C | 0 °C | 0 °C | 0 °C | 0.2 °C | -0.3 °C | ΔTm [21]: -0.7 °C; ΔTm [22]: 1 °C; ΔTm [23]: -0.7 °C; ΔTm [24]: -0.2 °C; ΔTm [25]: 0.1 °C; ΔTm [26]: 0.1 °C; ΔTm [27]: 0.2 °C; ΔTm [28]: 0.6 °C; ΔTm [29]: 0.7 °C
O=c1c(O)c(-c2ccc(O)c(O)c2)oc2cc(O)cc(O)c12 [QUERCETIN] | 2.3 °C | 4.1 °C | 2.9 °C | 2.7 °C | 4.9 °C | 5.3 °C | 1.9 °C | 1.6 °C | 4.8 °C | 7.7 °C | 2.4 °C | 2.9 °C | 7.5 °C | 8.2 °C | 2.4 °C | 3.6 °C | 1.9 °C | 4.4 °C | 7.4 °C | 0.5 °C | ΔTm [21]: 1.8 °C; ΔTm [22]: 8.8 °C; ΔTm [23]: 1.7 °C; ΔTm [24]: 4.2 °C; ΔTm [25]: 6.6 °C; ΔTm [26]: 5.7 °C; ΔTm [27]: 3.2 °C; ΔTm [28]: 1.4 °C; ΔTm [29]: -0.2 °C
